Assay results published in ChEMBL document CHEMBL1201862, “PubChem BioAssay data set” (2004).
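Tested at 5 concentrations; 48 h exposure; 96-well plates; endpoints linearly interpolated, else capped at highest concentration. Here, GI50 denotes the concentration required for 50% inhibition of growth.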 Calls of active or inactive are those of the source. Rule as the data show it: active = GI50 up to about 1.1 µM and inactive = higher.

How the values were obtained:
Assay in all cases: inhibition of tumour cell growth, NCI panel, 48 h
TK-10 = test system: TK-10
CCRF-CEM = test system: CCRF-CEM
Hs-578T = test system: Hs-578T
CAKI-1 = test system: CAKI-1
K562 = test system: K562
A498 = test system: A498
MCF7 = test system: MCF7
SF-539 = test system: SF-539
SK-MEL-28 = test system: SK-MEL-28
SW-620 = test system: SW-620
NCI-H226 = test system: NCI-H226
MDA-MB-231 = test system: MDA-MB-231
OVCAR-5 = test system: OVCAR-5
A549 = test system: A549
Malme-3M = test system: Malme-3M
M14 = test system: M14
NCI-H460 = test system: NCI-H460
NCI-H522 = test system: NCI-H522
U-251 = test system: U-251
HL-60 = test system: HL-60
MOLT-4 = test system: MOLT-4
ACHN = test system: ACHN
786-0 = test system: 786-0
LOX IMVI = test system: LOX IMVI
HCT-116 = test system: HCT-116
OVCAR-3 = test system: OVCAR-3
HCC 2998 = test system: HCC 2998
SK-MEL-5 = test system: SK-MEL-5
PC-3 = test system: PC-3
KM12 = test system: KM12
BT-549 = test system: BT-549
UO-31 = test system: UO-31
UACC-62 = test system: UACC-62
RXF 393 = test system: RXF 393
DU-145 = test system: DU-145
COLO 205 = test system: COLO 205
OVCAR-4 = test system: OVCAR-4
SNB-19 = test system: SNB-19
HT-29 = test system: HT-29
T47D = test system: T47D
SNB-75 = test system: SNB-75
SF-268 = test system: SF-268
NCI-H23 = test system: NCI-H23
HOP-92 = test system: HOP-92
IGROV-1 = test system: IGROV-1
RPMI-8226 = test system: RPMI-8226
HCT-15 = test system: HCT-15
SR = test system: SR
UACC-257 = test system: UACC-257
SK-OV-3 = test system: SK-OV-3
NCI/ADR-RES = test system: NCI/ADR-RES
SK-MEL-2 = test system: SK-MEL-2
MDA-N = test system: MDA-N
MDA-MB-435 = test system: MDA-MB-435
OVCAR-8 = test system: OVCAR-8
SN12C = test system: SN12C
EKVX = test system: EKVX
HOP-62 = test system: HOP-62
SF-295 = test system: SF-295

## O=c1cc(NNc2ccccc2F)[nH]c(=O)[nH]1
TK-10
  GI50: 14.4 µM (inactive)
CCRF-CEM
  GI50: 17.5 µM (inactive)
Hs-578T
  GI50: 21.9 µM (inactive)
CAKI-1
  GI50: 13 µM (inactive)
K562
  GI50: 21.8 µM (inactive)
A498
  GI50: 59.8 µM (inactive)
MCF7
  GI50: 6.61 µM (inactive)
SF-539
  GI50: 16.8 µM (inactive)
SK-MEL-28
  GI50: 20.5 µM (inactive)
SW-620
  GI50: 18 µM (inactive)
NCI-H226
  GI50: 21.2 µM (inactive)
MDA-MB-231
  GI50: 16.3 µM (inactive)
OVCAR-5
  GI50: 19.5 µM (inactive)
A549
  GI50: 55 µM (inactive)
Malme-3M
  GI50: 18.8 µM (inactive)
M14
  GI50: 17.7 µM (inactive)
NCI-H460
  GI50: 0.0667 µM (active)
NCI-H522
  GI50: 16.2 µM (inactive)
U-251
  GI50: 17.7 µM (inactive)
HL-60
  GI50: 11.9 µM (inactive)
MOLT-4
  GI50: 23.4 µM (inactive)
ACHN
  GI50: 18.3 µM (inactive)
786-0
  GI50: 15.3 µM (inactive)
LOX IMVI
  GI50: 16 µM (inactive)
HCT-116
  GI50: 16.9 µM (inactive)
OVCAR-3
  GI50: 17.7 µM (inactive)
HCC 2998
  GI50: 17.9 µM (inactive)
SK-MEL-5
  GI50: 22.3 µM (inactive)
PC-3
  GI50: 18.9 µM (inactive)
KM12
  GI50: 15.3 µM (inactive)
BT-549
  GI50: 17.5 µM (inactive)
UO-31
  GI50: 12.2 µM (inactive)
UACC-62
  GI50: 17.1 µM (inactive)
RXF 393
  GI50: 1.26 µM (inactive)
DU-145
  GI50: 43.3 µM (inactive)
COLO 205
  GI50: 19.2 µM (inactive)
OVCAR-4
  GI50: 17.7 µM (inactive)
SNB-19
  GI50: > 100 µM (inactive)
HT-29
  GI50: 17.9 µM (inactive)
T47D
  GI50: 0.679 µM (active)
SNB-75
  GI50: 25.9 µM (inactive)
SF-268
  GI50: 19.4 µM (inactive)
NCI-H23
  GI50: 17.3 µM (inactive)
HOP-92
  GI50: 15.7 µM (inactive)
IGROV-1
  GI50: 16.7 µM (inactive)
RPMI-8226
  GI50: 17.8 µM (inactive)
HCT-15
  GI50: 16 µM
SR
  GI50: 1.35 µM (inactive)
UACC-257
  GI50: 17.7 µM (inactive)
SK-OV-3
  GI50: 21.1 µM (inactive)
NCI/ADR-RES
  GI50: 16.6 µM (inactive)
SK-MEL-2
  GI50: 16.7 µM (inactive)
MDA-N
  GI50: 18.5 µM (inactive)

## N#Cc1c(N)n(-c2cccc(C(=O)O)c2)c(=O)c2cc([N+](=O)[O-])ccc12
TK-10
  GI50: > 100 µM (inactive)
Hs-578T
  GI50: > 100 µM (inactive)
CAKI-1
  GI50: > 100 µM (inactive)
K562
  GI50: > 100 µM (inactive)
MDA-MB-435
  GI50: > 100 µM (inactive)
OVCAR-8
  GI50: > 100 µM (inactive)
A498
  GI50: > 100 µM (inactive)
SK-MEL-28
  GI50: > 100 µM (inactive)
SW-620
  GI50: > 100 µM (inactive)
NCI-H226
  GI50: > 100 µM (inactive)
MDA-MB-231
  GI50: > 100 µM (inactive)
A549
  GI50: 0.505 µM (active)
NCI-H460
  GI50: > 100 µM (inactive)
U-251
  GI50: > 100 µM (inactive)
HL-60
  GI50: > 100 µM (inactive)
ACHN
  GI50: > 100 µM (inactive)
786-0
  GI50: > 100 µM (inactive)
LOX IMVI
  GI50: > 100 µM (inactive)
HCT-116
  GI50: > 100 µM (inactive)
HCC 2998
  GI50: > 100 µM (inactive)
SK-MEL-5
  GI50: > 100 µM (inactive)
PC-3
  GI50: 42 µM (inactive)
KM12
  GI50: > 100 µM (inactive)
BT-549
  GI50: > 100 µM (inactive)
UO-31
  GI50: > 100 µM (inactive)
UACC-62
  GI50: > 100 µM (inactive)
DU-145
  GI50: > 100 µM (inactive)
COLO 205
  GI50: > 100 µM (inactive)
OVCAR-4
  GI50: > 100 µM (inactive)
SNB-19
  GI50: > 100 µM (inactive)
HT-29
  GI50: > 100 µM (inactive)
T47D
  GI50: > 100 µM (inactive)
SNB-75
  GI50: > 100 µM (inactive)
SF-268
  GI50: > 100 µM (inactive)
NCI-H23
  GI50: > 100 µM (inactive)
HOP-92
  GI50: > 100 µM (inactive)
RPMI-8226
  GI50: > 100 µM (inactive)
HCT-15
  GI50: > 100 µM
UACC-257
  GI50: > 100 µM (inactive)
NCI/ADR-RES
  GI50: > 100 µM (inactive)
SN12C
  GI50: > 100 µM (inactive)
SK-MEL-2
  GI50: > 100 µM (inactive)
MDA-N
  GI50: > 100 µM (inactive)

## CC(C)CNC1=NCC(C)S1 (stereo not given)
TK-10
  GI50: > 100 µM (inactive)
CCRF-CEM
  GI50: > 100 µM (inactive)
EKVX
  GI50: > 100 µM (inactive)
Hs-578T
  GI50: > 100 µM (inactive)
HOP-62
  GI50: > 100 µM (inactive)
CAKI-1
  GI50: > 100 µM (inactive)
K562
  GI50: > 100 µM (inactive)
MDA-MB-435
  GI50: > 100 µM (inactive)
A498
  GI50: > 100 µM (inactive)
MCF7
  GI50: > 100 µM (inactive)
SF-539
  GI50: > 100 µM (inactive)
SK-MEL-28
  GI50: > 100 µM (inactive)
SW-620
  GI50: > 100 µM (inactive)
NCI-H226
  GI50: > 100 µM (inactive)
MDA-MB-231
  GI50: > 100 µM (inactive)
OVCAR-5
  GI50: > 100 µM (inactive)
SF-295
  GI50: > 100 µM (inactive)
A549
  GI50: > 100 µM (inactive)
Malme-3M
  GI50: > 100 µM (inactive)
M14
  GI50: > 100 µM (inactive)
NCI-H460
  GI50: > 100 µM (inactive)
NCI-H522
  GI50: > 100 µM (inactive)
U-251
  GI50: > 100 µM (inactive)
HL-60
  GI50: > 100 µM (inactive)
MOLT-4
  GI50: > 100 µM (inactive)
ACHN
  GI50: > 100 µM (inactive)
LOX IMVI
  GI50: > 100 µM (inactive)
HCT-116
  GI50: > 100 µM (inactive)
OVCAR-3
  GI50: > 100 µM (inactive)
HCC 2998
  GI50: > 100 µM (inactive)
SK-MEL-5
  GI50: > 100 µM (inactive)
PC-3
  GI50: > 100 µM (inactive)
KM12
  GI50: > 100 µM (inactive)
BT-549
  GI50: > 100 µM (inactive)
UO-31
  GI50: 79.3 µM (inactive)
UACC-62
  GI50: > 100 µM (inactive)
RXF 393
  GI50: > 100 µM (inactive)
DU-145
  GI50: > 100 µM (inactive)
COLO 205
  GI50: > 100 µM (inactive)
SNB-19
  GI50: > 100 µM (inactive)
HT-29
  GI50: > 100 µM (inactive)
T47D
  GI50: > 100 µM (inactive)
SNB-75
  GI50: > 100 µM (inactive)
SF-268
  GI50: 74.8 µM (inactive)
NCI-H23
  GI50: > 100 µM (inactive)
HOP-92
  GI50: > 100 µM (inactive)
IGROV-1
  GI50: > 100 µM (inactive)
RPMI-8226
  GI50: > 100 µM (inactive)
HCT-15
  GI50: > 100 µM
SR
  GI50: > 100 µM (inactive)
UACC-257
  GI50: > 100 µM (inactive)
SK-OV-3
  GI50: > 100 µM (inactive)
SK-MEL-2
  GI50: > 100 µM (inactive)
MDA-N
  GI50: > 100 µM (inactive)
